The source made the active and inactive calls.
Experiments:
Cytochrome P450 3A4 = Cytochrome P450 3A4 (Homo sapiens, UniProt P08684);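 further: CYP3A4 tested as one member of a cytochrome P450 panel screen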
Cytochrome P450 2C9 = Cytochrome P450 2C9 (Homo sapiens, UniProt P11712)
[1] = target: T1, Alkaline phosphatase, tissue-nonspecific isozyme (Homo sapiens, UniProt P05186); assay: human TNAP enzyme inhibitors, SAR follow-up, biochemical, luminescent, dose response (AID 1056)
T1 sequence (P05186 whole entry): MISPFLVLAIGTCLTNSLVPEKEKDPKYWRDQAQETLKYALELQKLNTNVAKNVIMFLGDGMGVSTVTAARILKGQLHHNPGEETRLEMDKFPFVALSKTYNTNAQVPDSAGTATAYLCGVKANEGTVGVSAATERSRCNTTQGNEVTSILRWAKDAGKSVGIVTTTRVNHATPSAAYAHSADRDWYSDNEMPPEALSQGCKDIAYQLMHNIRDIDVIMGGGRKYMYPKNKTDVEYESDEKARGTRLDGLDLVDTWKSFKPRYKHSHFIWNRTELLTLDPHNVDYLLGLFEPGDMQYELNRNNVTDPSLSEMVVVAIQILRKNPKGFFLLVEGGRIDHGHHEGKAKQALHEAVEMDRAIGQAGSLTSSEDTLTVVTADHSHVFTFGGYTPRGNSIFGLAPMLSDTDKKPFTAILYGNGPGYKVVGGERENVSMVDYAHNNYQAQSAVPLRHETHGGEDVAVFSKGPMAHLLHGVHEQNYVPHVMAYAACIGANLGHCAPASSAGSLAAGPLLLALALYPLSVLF

[2] = target: Glyceraldehyde-3-phosphate dehydrogenase (Homo sapiens, UniProt P04406)
Chain of Glyceraldehyde-3-phosphate dehydrogenase (P04406 whole entry): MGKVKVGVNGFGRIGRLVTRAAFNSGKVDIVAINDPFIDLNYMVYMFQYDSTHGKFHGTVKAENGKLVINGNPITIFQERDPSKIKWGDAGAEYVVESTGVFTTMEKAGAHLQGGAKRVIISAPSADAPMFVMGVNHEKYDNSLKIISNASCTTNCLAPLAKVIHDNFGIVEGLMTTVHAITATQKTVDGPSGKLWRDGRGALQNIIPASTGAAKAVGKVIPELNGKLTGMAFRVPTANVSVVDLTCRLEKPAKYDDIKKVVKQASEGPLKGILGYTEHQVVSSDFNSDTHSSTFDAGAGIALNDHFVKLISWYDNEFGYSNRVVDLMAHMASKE

cells = type: functional
[3] = HepG2 cell cytotoxicity, dose response, cytotoxicity control for non-replicating M. tuberculosis project (AID 489018); type: functional; conditions: Mycobacterium tuberculosis
[4] = Vero E6 cell cytotoxicity, dose response, cytotoxicity control for non-replicating M. tuberculosis project, secondary assay (AID 492998); type: functional, VeroE6; conditions: Vero C1008
[5] = THP-1 cell cytotoxicity, dose response, cytotoxicity control for non-replicating M. tuberculosis project (AID 489025); type: functional
HEK293 = assay: inhibitors of LMP1-driven NF-kB reporter, dose response, cell-based, HEK293, luciferase, cherry-pick (AID 588343); type: functional; conditions: Homo sapiens
[6] = target: DNA dC->dU-editing enzyme APOBEC-3G (Homo sapiens, UniProt Q9HC16); type: functional;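 further: Dose-response counterscreen measuring inhibition of APOBEC3G DNA deaminase activity, run while confirming APOBEC3A inhibitors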
Chain of DNA dC->dU-editing enzyme APOBEC-3G (Q9HC16 whole entry): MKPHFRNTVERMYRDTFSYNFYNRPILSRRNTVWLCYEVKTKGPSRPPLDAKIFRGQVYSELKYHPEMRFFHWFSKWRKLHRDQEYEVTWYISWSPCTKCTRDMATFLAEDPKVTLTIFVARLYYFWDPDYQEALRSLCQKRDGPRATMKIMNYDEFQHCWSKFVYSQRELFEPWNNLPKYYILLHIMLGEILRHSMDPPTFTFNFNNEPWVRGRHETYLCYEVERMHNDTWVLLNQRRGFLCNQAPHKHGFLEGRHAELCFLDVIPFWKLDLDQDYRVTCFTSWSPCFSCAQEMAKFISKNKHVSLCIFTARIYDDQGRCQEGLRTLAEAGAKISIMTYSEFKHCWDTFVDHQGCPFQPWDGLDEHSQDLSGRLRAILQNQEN

[7] = target: DNA dC->dU-editing enzyme APOBEC-3A (Homo sapiens, UniProt P31941); assay: Dose Response confirmation of small molecule APOBEC3A DNA Deaminase Inhibitors via a fluorescence-based single-stranded DNA deaminase assay. [Related pubchem assays (depositor defined):AID493011, AID493024]; type: functional
Chain of DNA dC->dU-editing enzyme APOBEC-3A (P31941 whole entry): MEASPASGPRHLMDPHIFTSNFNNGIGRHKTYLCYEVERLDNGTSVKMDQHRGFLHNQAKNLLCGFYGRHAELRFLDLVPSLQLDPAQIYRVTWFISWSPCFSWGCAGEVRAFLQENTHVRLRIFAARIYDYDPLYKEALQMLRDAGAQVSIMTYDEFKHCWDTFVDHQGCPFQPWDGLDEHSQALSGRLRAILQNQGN

[8] = target: Induced myeloid leukemia cell differentiation protein Mcl-1 (Homo sapiens, UniProt Q07820); type: functional
Chain of Induced myeloid leukemia cell differentiation protein Mcl-1 (Q07820 whole entry): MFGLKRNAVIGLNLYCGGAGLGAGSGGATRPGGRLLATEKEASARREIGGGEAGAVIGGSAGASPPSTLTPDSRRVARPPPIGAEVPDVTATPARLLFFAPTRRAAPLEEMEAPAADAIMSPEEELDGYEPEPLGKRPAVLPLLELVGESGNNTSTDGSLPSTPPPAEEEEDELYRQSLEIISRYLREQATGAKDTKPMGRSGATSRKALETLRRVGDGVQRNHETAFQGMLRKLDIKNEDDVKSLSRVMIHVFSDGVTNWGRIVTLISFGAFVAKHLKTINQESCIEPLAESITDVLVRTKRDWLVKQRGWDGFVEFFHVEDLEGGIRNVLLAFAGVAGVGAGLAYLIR

Vero [9] = assay: host cell cytotoxicity of antiviral hits, dose response, cytotoxicity control for West Nile virus antiviral project, secondary assay (AID 1650); type: functional, Chlorocebus sabaeus
[10] = growth suppression of beta-catenin-knockout colon cells, dose response, cell-based, HCT116, human colon tumor (AID 1045); type: functional;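 further: HCT116 colon tumor cells with beta catenin knocked out; cells exposed to compound for 60 hours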
[11] = growth suppression of PTEN-null colon cells, dose response, cell-based, HCT116 PTEN knockout (AID 1047); type: functional;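 further: HCT116 colon tumor cells with PTEN knocked out; cells exposed to compound for 60 hours before readout; potency for loss of cell viability measured by luminescence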
[12] = target: T2, Microphthalmia-associated transcription factor (Homo sapiens, UniProt O75030); assay: TRPM1 promoter luciferase signal decrease, dose response, MITF inhibitor project, cell-based, SK-MEL-5, cherry-picked, set 3 (AID 493073); type: functional
T2 sequence (O75030 whole entry): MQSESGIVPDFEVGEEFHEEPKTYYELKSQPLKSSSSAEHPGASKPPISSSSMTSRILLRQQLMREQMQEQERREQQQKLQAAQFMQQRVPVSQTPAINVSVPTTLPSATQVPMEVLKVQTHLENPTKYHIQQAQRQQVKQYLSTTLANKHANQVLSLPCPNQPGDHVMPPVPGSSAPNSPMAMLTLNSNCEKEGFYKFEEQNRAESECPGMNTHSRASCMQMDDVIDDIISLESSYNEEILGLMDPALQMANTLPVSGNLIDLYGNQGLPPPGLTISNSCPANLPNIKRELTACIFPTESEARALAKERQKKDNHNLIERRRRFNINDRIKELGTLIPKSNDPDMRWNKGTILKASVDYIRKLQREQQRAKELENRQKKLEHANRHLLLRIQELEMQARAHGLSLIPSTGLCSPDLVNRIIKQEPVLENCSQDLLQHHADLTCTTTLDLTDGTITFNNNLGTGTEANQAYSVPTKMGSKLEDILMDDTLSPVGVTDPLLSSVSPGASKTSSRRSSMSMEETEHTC

[13] = NIH-3T3 fibroblast cytotoxicity, dose response, cytotoxicity control, cell-based, fluorescence, Alamar Blue, secondary assay (AID 2327); type: functional;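 further: NIH-3T3 mouse fibroblasts cultured with fluconazole at 8 µg/mL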
[14] = C. albicans growth with fluconazole, confirmation, fluorescence, retest (AID 2467); type: functional, cell-based
Beta-galactosidase = Beta-galactosidase (Escherichia coli, UniProt Q8VNN2); assay: PubChem AID 485352; type: functional
Chain of Beta-galactosidase (Q8VNN2 whole entry): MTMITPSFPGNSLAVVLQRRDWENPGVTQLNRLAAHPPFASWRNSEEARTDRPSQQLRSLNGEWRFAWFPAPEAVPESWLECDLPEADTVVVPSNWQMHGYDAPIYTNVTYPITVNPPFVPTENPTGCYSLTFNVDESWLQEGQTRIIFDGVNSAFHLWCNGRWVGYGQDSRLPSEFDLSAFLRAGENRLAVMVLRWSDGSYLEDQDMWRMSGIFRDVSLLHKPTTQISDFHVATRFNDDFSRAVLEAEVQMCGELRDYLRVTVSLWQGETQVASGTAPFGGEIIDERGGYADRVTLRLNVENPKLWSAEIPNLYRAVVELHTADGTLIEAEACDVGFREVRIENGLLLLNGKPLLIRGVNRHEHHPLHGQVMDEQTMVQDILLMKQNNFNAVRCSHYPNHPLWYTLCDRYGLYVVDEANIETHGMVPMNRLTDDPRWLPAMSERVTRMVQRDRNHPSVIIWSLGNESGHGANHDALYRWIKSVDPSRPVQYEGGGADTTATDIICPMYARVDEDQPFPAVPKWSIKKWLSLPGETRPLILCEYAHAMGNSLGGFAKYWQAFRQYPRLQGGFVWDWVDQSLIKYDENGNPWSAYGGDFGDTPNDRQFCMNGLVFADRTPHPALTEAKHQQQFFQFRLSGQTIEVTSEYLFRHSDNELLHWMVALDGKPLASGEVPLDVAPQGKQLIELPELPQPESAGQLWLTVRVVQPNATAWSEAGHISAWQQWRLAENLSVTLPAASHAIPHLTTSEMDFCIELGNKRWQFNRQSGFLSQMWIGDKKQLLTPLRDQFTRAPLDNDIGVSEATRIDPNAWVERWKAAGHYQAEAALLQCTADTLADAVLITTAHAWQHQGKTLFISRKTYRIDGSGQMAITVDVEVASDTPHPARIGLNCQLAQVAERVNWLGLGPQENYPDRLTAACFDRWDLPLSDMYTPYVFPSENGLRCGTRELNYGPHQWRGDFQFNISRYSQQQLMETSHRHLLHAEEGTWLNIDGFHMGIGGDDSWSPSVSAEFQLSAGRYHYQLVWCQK

[15] = target: T3, Type-1 angiotensin II receptor (Homo sapiens, UniProt P30556); assay: AT1 receptor antagonists, dose response, selectivity assay for APJ receptor antagonist project, cell-based, uHTS hits (AID 463214); type: functional;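 further: antagonist potency against angiotensin II stimulated AT1 response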
T3 sequence (P30556 whole entry): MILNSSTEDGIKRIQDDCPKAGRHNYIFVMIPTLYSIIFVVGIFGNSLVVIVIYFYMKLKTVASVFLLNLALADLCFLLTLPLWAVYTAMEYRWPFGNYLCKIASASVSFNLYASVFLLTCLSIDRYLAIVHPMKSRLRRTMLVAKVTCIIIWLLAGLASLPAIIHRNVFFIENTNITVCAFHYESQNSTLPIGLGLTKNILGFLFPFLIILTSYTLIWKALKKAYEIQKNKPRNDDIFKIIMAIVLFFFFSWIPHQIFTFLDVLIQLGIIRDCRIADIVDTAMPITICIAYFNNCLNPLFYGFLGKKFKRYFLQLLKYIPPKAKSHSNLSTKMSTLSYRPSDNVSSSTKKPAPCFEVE

H9c2 = assay: cells; type: functional, cell-based; conditions: Rattus norvegicus, H9c2, Myocardium;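 further: confirmatory concentration-response retest of ultra-high-throughput screening hits for modulation of myocardial damage; cell death induced by hydrogen peroxide oxidative stress; compound pretreatment for 60 min then peroxide exposure for 2 h; potency is for protecting the cells against peroxide damage rather than for killing them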
Streptococcus = assay: Group A Streptococcus viability loss, dose response, counter-screen for streptokinase expression inhibitor project, luminescence, BacTiterGlo (AID 1915); type: functional, organism-based;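 further: potency for reduction of bacterial viability or growth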
[16] = system: Streptococcus sp. 'group A'; assay: growth inhibition of control SK(-) GAS strain, dose response, counter-screen for streptokinase expression inhibitor project, luminescence, kanamycin, BacTiterGlo, confirmation (AID 1900); type: functional, organism-based; conditions: read-out: EC50
[17] = inhibitors of firefly luciferase expression or activity, dose response, H4 neuroglioma cells, luminescence (AID 1990); type: functional, cell-based
BJ = assay: cytotoxicity toward Ras-transformed BJeLR fibroblasts, dose response, cell-based, alamar blue fluorescence, cherrypicked samples (AID 2631); type: functional; conditions: Homo sapiens;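 further: confirmatory dose-response assay in RAS-dependent BJ fibroblasts engineered with TERT, LT and ST, with cytotoxicity read by fluorescence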
Vero [18] = assay: cells; type: functional, cell-based; conditions: Chlorocebus sabaeus
Vero [19] = assay: cells; type: functional; conditions: Chlorocebus sabaeus
[20] = Luminescence Cell-Based Dose Response HTS to Identify Inhibitors of 5'UTR Stem-Loop Driven Prion Protein mRNA Translation in H4 Neuroglioblastoma Cells. [Related pubchem assays: 1827 (Project Summary), 1813 (Primary HTS)]; type: functional
[21] = inhibitors of SNCA 5'UTR-driven reporter translation, confirmation, H4 neuroglioma cells, luminescence (AID 1988); type: functional, cell-based
Paired box protein Pax-8 = Paired box protein Pax-8 (Homo sapiens, UniProt Q06710); assay: inhibitors of PAX8-driven TPO luciferase reporter, dose response, RMG-I cells, cherry-pick (AID 687027); type: functional, cell-based;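 further: luciferase reporter driven by Pax8 target thyroperoxidase promoter measured by SteadyGlo luminescence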
Chain of Paired box protein Pax-8 (Q06710 whole entry): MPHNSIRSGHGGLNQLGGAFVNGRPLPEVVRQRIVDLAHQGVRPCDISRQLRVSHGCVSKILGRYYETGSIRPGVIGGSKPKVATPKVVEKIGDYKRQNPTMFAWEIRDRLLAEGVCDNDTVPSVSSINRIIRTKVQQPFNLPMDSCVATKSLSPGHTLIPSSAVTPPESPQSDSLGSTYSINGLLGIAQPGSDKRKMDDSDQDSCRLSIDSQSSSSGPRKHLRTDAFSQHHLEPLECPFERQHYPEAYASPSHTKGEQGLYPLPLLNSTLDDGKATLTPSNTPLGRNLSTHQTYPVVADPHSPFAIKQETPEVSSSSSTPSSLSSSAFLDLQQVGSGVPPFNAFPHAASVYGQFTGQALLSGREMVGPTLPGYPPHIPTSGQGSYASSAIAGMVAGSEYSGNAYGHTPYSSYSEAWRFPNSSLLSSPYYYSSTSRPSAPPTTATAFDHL

Chain of Cytochrome P450 2C9 (P11712 whole entry): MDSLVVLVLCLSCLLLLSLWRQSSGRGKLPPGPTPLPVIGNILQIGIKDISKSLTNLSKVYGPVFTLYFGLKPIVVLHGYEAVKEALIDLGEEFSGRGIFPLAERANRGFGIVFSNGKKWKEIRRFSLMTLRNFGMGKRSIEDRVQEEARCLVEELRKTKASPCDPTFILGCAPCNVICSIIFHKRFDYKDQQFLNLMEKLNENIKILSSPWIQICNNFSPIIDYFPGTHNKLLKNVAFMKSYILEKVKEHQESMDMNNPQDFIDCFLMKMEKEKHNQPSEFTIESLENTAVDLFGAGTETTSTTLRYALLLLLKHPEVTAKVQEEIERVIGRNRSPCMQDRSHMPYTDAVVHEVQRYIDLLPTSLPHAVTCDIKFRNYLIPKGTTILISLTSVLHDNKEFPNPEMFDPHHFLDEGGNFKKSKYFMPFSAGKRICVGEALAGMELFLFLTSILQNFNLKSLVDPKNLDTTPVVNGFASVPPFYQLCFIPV
Chain of Cytochrome P450 3A4 (P08684 whole entry): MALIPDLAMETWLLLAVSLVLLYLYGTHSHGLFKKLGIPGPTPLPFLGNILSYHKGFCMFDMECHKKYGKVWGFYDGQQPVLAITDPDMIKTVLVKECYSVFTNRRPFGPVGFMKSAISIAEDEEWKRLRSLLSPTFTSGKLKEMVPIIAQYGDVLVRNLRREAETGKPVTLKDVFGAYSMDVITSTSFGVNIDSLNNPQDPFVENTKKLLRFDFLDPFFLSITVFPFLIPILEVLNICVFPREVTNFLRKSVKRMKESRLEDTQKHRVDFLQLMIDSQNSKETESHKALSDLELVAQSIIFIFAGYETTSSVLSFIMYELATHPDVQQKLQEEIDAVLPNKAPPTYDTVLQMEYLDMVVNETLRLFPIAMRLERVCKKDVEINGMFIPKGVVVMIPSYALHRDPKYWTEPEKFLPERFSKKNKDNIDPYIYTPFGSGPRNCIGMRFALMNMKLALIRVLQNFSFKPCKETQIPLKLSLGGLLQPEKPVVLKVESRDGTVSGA

With Cn1c(=O)c(-c2ccccc2)nc2cnc(Oc3ccccc3)nc21 the AC50 (Cytochrome P450 3A4) was “inconclusive” and the AC50 (Cytochrome P450 2C9) was 12.6 µM (inconclusive).
In the case of O=S(=O)(Nc1cnc2ccccc2c1)c1cc(Cl)ccc1Cl, the IC50 [1] is reported as 49.6 µM (active) and the IC50 [2] is reported as > 100 µM (not active).
For CCc1ccc2c(c1)Sc1ccccc1CC2N1CCN(C)CC1 (stereo unspecified), the IC50 (cells) was 14.1 µM (active), the CC50 [3] was > 20 µM (active) and the CC50 [4] was > 20 µM (active). For the same compound, the CC50 [5] was 15.8 µM (active).
For CCOc1ccccc1C(=O)N[C@H](C(=O)OCc1cc([N+](=O)[O-])cc2c1OCOC2)C(C)C, the AC50 (HEK293) was 183 µM (active).
With C[N+]1(CC(O)COc2ccccc2)CCN(C(=O)c2ccc([N+](=O)[O-])cc2)CC1 (stereo unspecified) the IC50 [6] was 3.44 µM (active) and the IC50 [7] was 2.82 µM (active).
In the case of Cc1cc2ncn(/N=C/c3ccc([N+](=O)[O-])s3)c2cc1C, the IC50 (cells) is reported as 1.25 µM (active), the IC50 [8] is reported as 3.27 µM (active) and the CC50 [3] is reported as 14 µM (active). The CC50 (Vero [9]; Chlorocebus sabaeus, Vero) was 18.5 µM (active), the CC50 [4] was 17.1 µM (active) and the CC50 [5] was 6.75 µM (active). For the same compound, the EC50 [10] was 3.33 µM (active) and the EC50 [11] was 3.36 µM (active).
With Cc1cc(C)c2ccc(N)nc2c1O the AC50 [12] was 9.58 µM (active), the EC50 [13] was > 150 µM (inconclusive) and the EC50 [14] was > 38 µM (not active). The EC50 (Beta-galactosidase) was > 40 µM (inactive), the IC50 [15] was 13.7 µM (active) and the IC50 (H9c2) was > 79 µM (inactive). The EC50 (Streptococcus) was 9.09 µM (active) and the EC50 [16] was 3.15 µM (active).
With C[C@H]1O[C@@H](O[C@H]2[C@@H](O)C[C@H](O[C@H]3[C@@H](O)C[C@H](O[C@H]4CC[C@@]5(C)[C@H](CC[C@@H]6[C@@H]5C[C@@H](O)[C@]5(C)[C@@H](C7=CC(=O)OC7)CC[C@]65O)C4)O[C@@H]3C)O[C@@H]2C)C[C@H](O)[C@@H]1O [DIGOXIN] the EC50 [17] was < 0.1 µM (active), the EC50 (BJ) was < 0.104 µM (active) and the CC50 (Vero [9]) was 0.37 µM (active). For the same compound, the CC50 (Vero [9]; Chlorocebus sabaeus, Vero) was 0.3 µM (active), the IC50 (Vero [18]) was < 0.05 µM (active) and the CC50 (Vero [19]) was 0.39 µM (active). For the same compound, the EC50 [20] was < 0.1 µM (active), the EC50 [21] was < 0.1 µM (active) and the AC50 (Paired box protein Pax-8) was 0.414 µM (active).
